# Legend:
# [1] = (§1) The drug is tested on WLS-086 corresponding to human gut metagenome with ENA study accession number: PRJEB37062 and ENA sample accession number: ERS12561752 for biotransformation under anaerobic condition. The drug concentrations were measured over 9 timepoints collected between 0 and 24 hours of incubation by liquid-chromatography-coupled mass spectrometry (LC–MS); conditions: 2 µM
# [2] = human gut metagenome, 24 h, 2 µM
# [3] = human gut metagenome, 24 h, 2 µM; remark: listed apart in the source
# [4] = human gut metagenome, 24 h, 2 µM; remark: listed apart in the source
# [5] = as §1, with “Z-025” for “WLS-086”, “rabbit” for “human”, “ERS12561824” for “ERS12561752”; conditions: 2 µM
# [6] = as §1, with “WLS-007” for “WLS-086”, “ERS12561742” for “ERS12561752”; conditions: 2 µM
# [7] = as §1, with “WLS-027” for “WLS-086”, “ERS12561744” for “ERS12561752”; conditions: 2 µM
# [8] = as §1, with “Z-027” for “WLS-086”, “to” for “to human gut”, “ERS12561826” for “ERS12561752”; conditions: 2 µM
# [9] = as §1, with “Z-021” for “WLS-086”, “to” for “to human gut”, “ERS12561820” for “ERS12561752”; conditions: 2 µM
# [10] = human gut metagenome, 24 h, 2 µM; remark: listed apart in the source
# [11] = human gut metagenome, 24 h, 2 µM; remark: listed apart in the source
# [12] = as §1, with “WLS-006” for “WLS-086”, “ERS12561741” for “ERS12561752”; conditions: 2 µM
# [13] = as §1, with “Z-030” for “WLS-086”, “mouse” for “human”, “ERS12561829” for “ERS12561752”; conditions: 2 µM
# [14] = as §1, with “Z-026” for “WLS-086”, “to” for “to human gut”, “ERS12561825” for “ERS12561752”; conditions: 2 µM
# [15] = human gut metagenome, 24 h, 2 µM; remark: listed apart in the source
# [16] = as §1, with “WLS-220” for “WLS-086”, “ERS12561769” for “ERS12561752”; conditions: 2 µM
# [17] = human gut metagenome, 24 h, 2 µM; remark: listed apart in the source
# [18] = as §1, with “WLS-310” for “WLS-086”, “ERS12561785” for “ERS12561752”; conditions: 2 µM
# [19] = human gut metagenome, 24 h, 2 µM; remark: listed apart in the source
# [20] = as §1, with “Z-014” for “WLS-086”, “rat” for “human”, “ERS12561814” for “ERS12561752”; conditions: 2 µM
# Further: call rule not given here.
Compound,Bacterial Biotransformation [1],Bacterial Biotransformation [2],Bacterial Biotransformation [3],Bacterial Biotransformation [4],Bacterial Biotransformation [5],Bacterial Biotransformation [6],Bacterial Biotransformation [7],Bacterial Biotransformation [8],Bacterial Biotransformation [9],Bacterial Biotransformation [10],Bacterial Biotransformation [11],Bacterial Biotransformation [12],Bacterial Biotransformation [13],Bacterial Biotransformation [14],Bacterial Biotransformation [15],Bacterial Biotransformation [16],Bacterial Biotransformation [17],Bacterial Biotransformation [18],Bacterial Biotransformation [19],Bacterial Biotransformation [20]
CC1Cc2ccccc2N1NC(=O)c1ccc(Cl)c(S(N)(=O)=O)c1 (stereo not given) [INDAPAMIDE],Compound NOT metabolized,Compound NOT metabolized,Compound NOT metabolized,Compound NOT metabolized,Compound NOT metabolized,Compound NOT metabolized,Compound NOT metabolized,Compound NOT metabolized,Compound NOT metabolized,Compound NOT metabolized,Compound NOT metabolized,Compound NOT metabolized,Compound NOT metabolized,Compound NOT metabolized,Compound NOT metabolized,Compound NOT metabolized,Compound NOT metabolized,Compound NOT metabolized,Compound NOT metabolized,Compound NOT metabolized
COc1ccc2c(c1)c(CC(=O)O)c(C)n2C(=O)c1ccc(Cl)cc1 [INDOMETHACIN],Compound metabolized,Compound metabolized,Compound NOT metabolized,Compound metabolized,Compound NOT metabolized,Compound metabolized,Compound metabolized,Compound metabolized,Compound NOT metabolized,Compound metabolized,Compound metabolized,Compound metabolized,Compound NOT metabolized,Compound NOT metabolized,Compound metabolized,Compound metabolized,Compound metabolized,Compound metabolized,Compound metabolized,Compound NOT metabolized
CC(CCc1ccccc1)NCC(O)c1ccc(O)c(C(N)=O)c1 (stereo not given) [LABETALOL],Compound metabolized,Compound NOT metabolized,Compound NOT metabolized,Compound NOT metabolized,Compound metabolized,Compound NOT metabolized,Compound NOT metabolized,Compound metabolized,Compound NOT metabolized,Compound NOT metabolized,Compound NOT metabolized,Compound NOT metabolized,Compound NOT metabolized,Compound NOT metabolized,Compound NOT metabolized,Compound NOT metabolized,Compound NOT metabolized,Compound NOT metabolized,Compound metabolized,Compound NOT metabolized
Nc1nnc(-c2cccc(Cl)c2Cl)c(N)n1 [LAMOTRIGINE],Compound metabolized,Compound metabolized,Compound metabolized,Compound NOT metabolized,Compound NOT metabolized,Compound NOT metabolized,Compound NOT metabolized,Compound NOT metabolized,Compound NOT metabolized,Compound NOT metabolized,Compound NOT metabolized,Compound NOT metabolized,Compound NOT metabolized,Compound NOT metabolized,Compound NOT metabolized,Compound NOT metabolized,Compound NOT metabolized,Compound NOT metabolized,Compound metabolized,Compound NOT metabolized
OC(c1cc(C(F)(F)F)nc2c(C(F)(F)F)cccc12)C1CCCCN1 (stereo not given) [MEFLOQUINE],Compound metabolized,Compound metabolized,Compound metabolized,Compound metabolized,Compound NOT metabolized,Compound NOT metabolized,Compound metabolized,Compound NOT metabolized,Compound metabolized,Compound NOT metabolized,Compound metabolized,Compound metabolized,Compound NOT metabolized,Compound metabolized,Compound metabolized,Compound metabolized,Compound metabolized,Compound metabolized,Compound metabolized,Compound NOT metabolized
CC(=O)O[C@]1(C(C)=O)CC[C@H]2[C@@H]3C=C(C)C4=CC(=O)CC[C@]4(C)[C@H]3CC[C@@]21C [MEGESTROL ACETATE],Compound metabolized,Compound metabolized,Compound metabolized,Compound metabolized,Compound metabolized,Compound metabolized,Compound metabolized,Compound metabolized,Compound NOT metabolized,Compound metabolized,Compound metabolized,Compound metabolized,Compound NOT metabolized,Compound metabolized,Compound metabolized,Compound metabolized,Compound metabolized,Compound metabolized,Compound metabolized,Compound NOT metabolized
CC12CC3CC(C)(C1)CC(N)(C3)C2 [MEMANTINE],Compound NOT metabolized,Compound NOT metabolized,Compound NOT metabolized,Compound NOT metabolized,Compound NOT metabolized,Compound NOT metabolized,Compound NOT metabolized,Compound NOT metabolized,Compound NOT metabolized,Compound NOT metabolized,Compound NOT metabolized,Compound NOT metabolized,Compound NOT metabolized,Compound NOT metabolized,Compound NOT metabolized,Compound NOT metabolized,Compound NOT metabolized,Compound NOT metabolized,Compound NOT metabolized,Compound NOT metabolized
Cc1cc(C)cc(OCC2CNC(=O)O2)c1 (stereo not given) [METAXALONE],Compound metabolized,Compound metabolized,Compound metabolized,Compound metabolized,Compound NOT metabolized,Compound metabolized,Compound metabolized,Compound metabolized,Compound NOT metabolized,Compound metabolized,Compound NOT metabolized,Compound metabolized,Compound NOT metabolized,Compound metabolized,Compound metabolized,Compound metabolized,Compound metabolized,Compound metabolized,Compound metabolized,Compound NOT metabolized

# Source: ChEMBL document CHEMBL5724914, “Linking interpersonal differences in gut microbiota composition and drug biotransformation activity” (2024)
